Data: ChEMBL document CHEMBL1127032, “(Dipropylphenoxy)phenylacetic acids: a new generation of nonpeptide angiotensin II receptor antagonists” (J Med Chem, 1993)

Legend:
[1] = target: T1, Type-2 angiotensin II receptor (Rattus norvegicus, UniProt P35351); test: Displacement of […][Sar1,IIe8]AII from rat midbrain angiotensin II (AT2) receptor
T1 sequence (P35351 whole entry): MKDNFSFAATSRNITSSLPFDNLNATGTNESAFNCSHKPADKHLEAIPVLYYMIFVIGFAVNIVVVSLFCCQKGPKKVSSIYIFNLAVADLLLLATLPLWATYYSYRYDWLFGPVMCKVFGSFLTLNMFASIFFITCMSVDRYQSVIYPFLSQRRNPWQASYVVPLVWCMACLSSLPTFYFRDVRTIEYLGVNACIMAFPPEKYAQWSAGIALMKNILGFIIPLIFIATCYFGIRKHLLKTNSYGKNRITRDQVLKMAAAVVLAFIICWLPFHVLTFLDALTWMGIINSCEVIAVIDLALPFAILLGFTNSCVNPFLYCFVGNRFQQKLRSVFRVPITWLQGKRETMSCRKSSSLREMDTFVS

[2] = target: T2, Type-1 angiotensin II receptor (Oryctolagus cuniculus, UniProt P34976); test: Displacement of […][Sar1,IIe8]AII from rabbit aorta Angiotensin II receptor, type 1; type: tissue-based
T2 sequence (P34976 whole entry): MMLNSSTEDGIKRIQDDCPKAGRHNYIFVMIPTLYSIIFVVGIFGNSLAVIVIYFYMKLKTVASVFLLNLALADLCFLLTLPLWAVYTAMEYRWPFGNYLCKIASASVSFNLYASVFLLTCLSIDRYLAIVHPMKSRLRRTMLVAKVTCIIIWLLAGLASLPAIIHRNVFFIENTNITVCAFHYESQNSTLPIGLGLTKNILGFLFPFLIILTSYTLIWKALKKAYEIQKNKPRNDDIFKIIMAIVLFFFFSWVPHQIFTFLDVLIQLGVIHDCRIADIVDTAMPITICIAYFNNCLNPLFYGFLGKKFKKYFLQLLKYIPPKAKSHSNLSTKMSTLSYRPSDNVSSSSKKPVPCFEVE

Structure (SMILES) | IC50 [1] [µM] | IC50 [2] [µM]
CCCc1cc(Cn2c(CC)nc3c(C)cc(C)nc32)cc(CCC)c1OC(C(=O)O)c1ccccc1C (stereo not drawn) | 7.5 | 0.0012
CCCc1cc(Cn2c(CC)nc3c(C)cc(C)nc32)cc(CCC)c1OC(C(=O)O)c1ccccc1 (stereo not drawn) | 2.6 | 0.0009
CCCc1cc(Cn2c(CC)nc3c(C)cc(C)nc32)cc(CCC)c1OC(C(=O)O)c1cccc(C)c1 (stereo not drawn) | 0.8 | 0.00074
CCCc1cc(Cn2c(CC)nc3c(C)cc(C)nc32)cc(CCC)c1OC(C(=O)O)c1cccc(-c2ccccc2)c1 (stereo not drawn) | 0.74 | 0.0068
CCCc1cc(Cn2c(CC)nc3c(C)cc(C)nc32)cc(CCC)c1OC(C(=O)O)c1ccccc1Cl (stereo not drawn) | 3.5 | 0.00053

Next, values leading:

IC50 [1] [µM] | IC50 [2] [µM] | Structure (SMILES)
2.3 | 0.00075 | CCCc1cc(Cn2c(CC)nc3c(C)cc(C)nc32)cc(CCC)c1OC(C(=O)O)c1cccc(Cl)c1 (stereo not drawn)
0.24 | 0.019 | CCCc1cc(Cn2c(CC)nc3c(C)cc(C)nc32)cc(CCC)c1OC(C(=O)O)c1ccc(CC)cc1 (stereo not drawn)
0.4 | 0.004 | CCCc1cc(Cn2c(CC)nc3c(C)cc(C)nc32)cc(CCC)c1OC(C(=O)O)c1ccc(C)cc1 (stereo not drawn)
1.9 | 0.0052 | CCCc1cc(Cn2c(CC)nc3c(C)cc(C)nc32)cc(CCC)c1OC(C(=O)O)c1ccc(Oc2ccccc2)cc1 (stereo not drawn)
0.45 | 0.0028 | CCCc1cc(Cn2c(CC)nc3c(C)cc(C)nc32)cc(CCC)c1OC(C(=O)O)c1ccc(Cl)cc1 (stereo not drawn)
1.6 | 0.00047 | CCCc1cc(Cn2c(CC)nc3c(C)cc(C)nc32)cc(CCC)c1OC(C(=O)O)c1cccc(Oc2ccccc2)c1 (stereo not drawn)
> 10 | – | CCc1nc2c(C)cc(C)nc2n1Cc1ccc(-c2ccccc2-c2nnn[nH]2)cc1 [L-158809]
